Test results taken from patent US11486825B1, “Devices and methods for analysis of biological matter using plasmon resonance” (THE FLORIDA INTERNATIONAL UNIVERSITY BOARD OF TRUSTEES, priority 2022, dated 2022).

Tested on: contracting CMs (cardiomyocytes)
Experiment: P-CeG (plasmonic cardio-eukaryography) signal of contracting cardiomyocytes cultured on gold SPR sensor, consecutive drug injections
Assay type: cell-based
Text: The device as shown in FIGS. 1(a) and 1(c) was used for experiments and studies. The device had dimensions of 12 cm×7.5 cm×5 cm and had micro LEDs, LED splitters, micro prisms, micro polarizers, and micro detectors that induced plasmonic waveguides and detected changes in the electrical/mechanical activity of a cell membrane. Cellular function of mechanical and electrical origins was filtered and sorted using software in operable communication with the sensing platform, and was then compared to the physiological parameters of a healthy cell. […] The hinged cap (fluidic module) had heavy-duty gaskets made from PDMS attached thereto. Micropumps and microtubing on the were used to drive the flow of the cell medium from its attached reservoir. The base of the device acted as a Faraday cage for the micro settings of plasmonic induction and detection, as well as related PCB boards and computer interface connectors of the sensing platform. The refraction index of the prisms was […] (each prism was a BK7 prism from a BI2000 device (Biosensing Instruments, AZ). The cell-SPR model discussed herein with reference to FIGS. 2(a)-2(f) was used as the cell-SPR model for experiments.
Empirical P-CeG data was correlated to the mathematical model of charge distribution near CM's cell membrane. FIG. 10(a) illustrates the four phases in a CM's action potential, field potential, and force of contraction profile (top to bottom, respectively) over time. The dashed vertical lines show phases 0, 1, 2, and 3 of the CM's electromechanical activities. […] Values were extracted using equations from the cell-SPR model. […] Arrows from left to right in the bottom graph depict the depolarization amplitude (DA), field potential duration (FPD), and the repolarization amplitude (RA) as the main features of a CM's field potential. These are also elaborated on in FIG. 10(e) and FIG. 10(f).
Feature extraction was performed on a P-CeG signal and its correlated charge profile of contracting CMs. FIGS. 11(a), 11(b), and 11(c) show amplitude, full width at half maximum (FWHM), and inter-beat intervals (IBI), respectively, for a 100-second epoch from the P-CeG signal obtained from 12 CM-cultured gold sensors. The high variability of values across different sensors is due to the selected methodology for cell isolation and non-ideal experimental conditions (room temperature and without CO2). FIGS. 11(d), 11(e), and 11(f) show DA, RA, and FPD of contracting CMs obtained from their charge profile.
Analysis was performed using blebbistatin as the cells to be analyzed. Consecutive injections of 1 micromolar (04), 3 μM, 5 μM, 7 and 9 μM blebbistatin were performed, and the P-CeG signals were recorded and analyzed. […] A decrease of the control sample's amplitude and high variability in the FWHM of data with time indicate decreased cellular functionality due to non-ideal experimental conditions. Average data are reported as mean±std: 1-way ANOVA, p<0.0001, 95% CI.
Analysis was performed using verapamil as the cells to be analyzed. Consecutive injections of 50 nanomolar (nM), 100 nM, 200 nM, and 500 nM verapamil were performed, and the P-CeG signals were recorded and analyzed. […] Average data are reported as mean±std: 1-way ANOVA, p<0.0001, 95% CI. […] Referring to FIGS. 14(k) and 14(l), an increase in FPD and FWHM of the signals is distinctly observable with increasing verapamil concentrations.
Analysis was performed using caffeine as the cells to be analyzed. Consecutive injections of 2 millimolar (mM), 4 mM, 6 mM, and 8 mM caffeine were performed, and the P-CeG signals were recorded and analyzed. […] Average data are reported as mean±std: 1-way ANOVA, p<0.0001, 95% CI.

With `Cc1ccc2c(c1)C(=O)C1(O)CCN(c3ccccc3)C1=N2` (stereo not drawn) [blebbistatin] the “P-CeG signal amplitude (refractive index change)” value (consecutive injections of 1, 3, 5, 7 and 9 μM blebbistatin vs control, FIGS. 13(a), 13(b), 13(d)) was “continuous decrease in signal amplitude”, the “signal's peak amplitudes (normalized refractive angle change)” value (five concentrations of blebbistatin 1-9 μM, FIG. 13(i)) was “decreased” and the FWHM duration (five concentrations of blebbistatin 1-9 μM, FIG. 13(j)) was “higher variability”. The “cell signaling rate (action potential per minute, APM)” value (five concentrations of blebbistatin 1-9 μM, FIG. 13(k)) was “relatively unchanged”, the “depolarization amplitude (DA)” value (increasing blebbistatin concentrations 1-9 μM, FIG. 13(f)) was “no significant difference” and the “repolarization amplitude (RA)” value (increasing blebbistatin concentrations 1-9 μM, FIG. 13(g)) was “no significant difference”. The “field potential duration (FPD)” value (increasing blebbistatin concentrations 1-9 μM, FIG. 13(h)) was “showed a decrease”.

For `Cn1c(=O)c2c(ncn2C)n(C)c1=O` [caffeine], the “P-CeG signal amplitude (refractive index change)” value (consecutive injections of 2, 4, 6 and 8 mM caffeine vs control, FIGS. 15(a), 15(b), 15(d)) was “presence of detectable signal amplitude”, the “peak amplitudes (normalized refractive angle change)” value (increased caffeine concentrations 2-8 mM, FIG. 15(i)) was “relatively unchanged” and the FWHM duration (increased caffeine concentrations 2-8 mM, FIG. 15(j)) was “relatively unchanged”. The “cell signaling rate (action potential per minute, APM)” value (increased caffeine concentrations 2-8 mM, FIG. 15(k)) was “decreases”, the “depolarization amplitude (DA)” value (increasing caffeine concentrations 2-8 mM, FIG. 15(f)) was “no significant difference” and the “repolarization amplitude (RA)” value (increasing caffeine concentrations 2-8 mM, FIG. 15(g)) was “no significant difference”. The “field potential duration (FPD)” value (increasing caffeine concentrations 2-8 mM, FIG. 15(h)) was “slight increase”.

With `COc1ccc(CCN(C)CCCC(C#N)(c2ccc(OC)c(OC)c2)C(C)C)cc1OC` (stereo not drawn) [verapamil] the “P-CeG signal amplitude (refractive index change)” value (consecutive injections of 50, 100, 200 and 500 nM verapamil vs control, FIGS. 14(a), 14(b), 14(d)) was “sharp decrease in signal amplitude”, the “peak amplitudes (normalized refractive angle change)” value (increasing verapamil concentration 50-500 nM, FIG. 14(h)) was “decreased” and the FWHM duration (increasing verapamil concentration 50-500 nM, FIG. 14(i)) was “slightly increases before it becomes undetectable and is counted as zero”. For the same compound, the “cell signaling rate (action potential per minute, APM)” value (increasing verapamil concentration 50-500 nM, FIG. 14(j)) was “decreased”, the “depolarization amplitude (DA)” value (increasing verapamil concentrations 50-500 nM, FIG. 14(e)) was “no significant difference” and the “repolarization amplitude (RA)” value (increasing verapamil concentrations 50-500 nM, FIG. 14(f)) was “no significant difference”. The “field potential duration (FPD)” value (increasing verapamil concentrations 50-500 nM, FIG. 14(g)) was “showed an increase”.
